Legend:
[1] = Human liver microsomal stability; assay type: in vitro ADME; details: for CLint scaled at 2 h, 1 µM: human, microsomes, pH 7.4
[2] = test system: NTR2; details: compared with hit 8; cited from earlier work
[3] = molecular target: T1, human angiotensin II receptor, type I (Homo sapiens, UniProt P30556); details: cited from earlier work
T1 sequence (P30556 1-359): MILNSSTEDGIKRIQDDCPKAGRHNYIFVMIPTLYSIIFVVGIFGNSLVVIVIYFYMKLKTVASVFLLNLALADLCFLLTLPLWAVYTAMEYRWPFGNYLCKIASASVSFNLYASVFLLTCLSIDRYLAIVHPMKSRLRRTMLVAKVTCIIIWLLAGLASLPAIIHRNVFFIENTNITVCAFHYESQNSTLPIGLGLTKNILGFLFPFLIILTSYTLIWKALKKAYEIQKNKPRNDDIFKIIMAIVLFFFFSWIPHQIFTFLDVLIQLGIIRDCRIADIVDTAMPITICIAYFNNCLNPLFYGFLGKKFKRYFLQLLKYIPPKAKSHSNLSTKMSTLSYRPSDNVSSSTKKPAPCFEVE

[4] = molecular target: T2, hAPJ (Homo sapiens, UniProt P35414); experiment: Lance cAMP accumulation assay; assay type: cell-based
T2 sequence (P35414 1-380): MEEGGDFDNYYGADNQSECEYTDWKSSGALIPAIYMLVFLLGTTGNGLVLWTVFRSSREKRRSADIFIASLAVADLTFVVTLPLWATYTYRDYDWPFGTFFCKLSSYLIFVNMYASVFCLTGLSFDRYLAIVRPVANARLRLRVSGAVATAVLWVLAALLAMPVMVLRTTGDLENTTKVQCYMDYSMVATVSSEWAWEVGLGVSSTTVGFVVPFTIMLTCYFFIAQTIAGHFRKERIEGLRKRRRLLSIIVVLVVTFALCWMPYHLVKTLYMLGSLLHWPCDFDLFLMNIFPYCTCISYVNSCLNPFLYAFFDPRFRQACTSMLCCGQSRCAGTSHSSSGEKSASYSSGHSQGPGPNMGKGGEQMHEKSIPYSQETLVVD

[5] = test system: apelin receptor; details: cited from earlier work
[6] = cited from earlier work
[7] = test system: 5-HT1A, α2C adrenergic, mu-opioid, benzylpiperazine receptors and norepinephrine transporter; details: cited from earlier work
[8] = cited from earlier work; remark: listed apart in the source

CCOc1ccc2c(C)cc(=O)oc2c1 [7-ethoxy-4-methylcoumarin]
CLint scaled at 2 h, 1 µM [1]: 325 mL/min/kg

COc1cccc(OC)c1-c1cc(C(=O)N[C@@H](CCC2CCCCC2)CC(=O)O)nn1-c1ccc(F)cc1 [Compound 9, (S)-5-cyclohexyl-3-(5-(2,6-dimethoxyphenyl)-1-(4-fluorophenyl)-1H-pyrazole-3-carboxamido)pentanoic acid]
Off-target NTR2 activity [2]: significantly reduced
Activity at AT1 receptor, previously reported [3]: did not activate or inhibit
Stability in human liver microsomes [1]: excellent stability
CLint scaled at 2 h, 1 µM [1]: 5 mL/min/kg

COc1cccc(OC)c1-c1cc(C(=O)N[C@@H](CCC2CCCCC2)CC(=O)O)nn1CC1CCCCC1 [Compound 15, (S)-5-Cyclohexyl-3-(1-(cyclohexylmethyl)-5-(2,6-dimethoxyphenyl)-1H-pyrazole-3-carboxamido)pentanoic acid]
Activity in cAMP assay [4]: completely inactive

COc1cccc(OC)c1-c1cc(C(=O)N[C@@H](CCC2CCCCC2)CC(=O)O)nn1C1CCCCCCC1 [Compound 16, (S)-5-Cyclohexyl-3-(1-cyclooctyl-5-(2,6-dimethoxyphenyl)-1H-pyrazole-3-carboxamido)pentanoic acid]
Activity in cAMP assay [4]: completely inactive

CCC(CC)n1c(Cc2cccs2)nc2cc(C(=O)N[C@H](CC(=O)O)CC(C)C)ccc21 [CMF-019, (S)-5-Methyl-3-{1-(pentan-3-yl)-2-(thiophen-2-ylmethyl)-1H-benzo[d]imidazole5-carboxamido}hexanoic Acid]
Bias towards Gαi signaling over receptor internalization [5]: ~ 6000 fold
Bias towards Gαi signaling over β-arrestin recruitment [5]: ~ 400 fold

CC1=CC(=O)C(C2CCCCC2)=C/C1=N\OS(=O)(=O)c1ccccc1 [ML233, (E)-2-cyclohexyl-5-methyl-4-(phenylsulfonyloxyimino)cyclohexa-2,5-dienone]
Stability in microsomal fractions [6]: poor
Off-target binding [7]: significant off-target binding
Solubility [8]: poor solubility
